Here are results for 14 molecules from ChEMBL document CHEMBL5579842, “Modulation of endogenous opioid signaling by inhibitors of puromycin-sensitive aminopeptidase” (Eur J Med Chem, 2024).

Activity calls are given as the source filed them. No cut-off for these calls is given here.

In one series the test system is Vero. Nature of the series: Inhibition of protein synthesis in African green monkey Vero cells at 25 uM relative to control. In kind it is functional. Particulars: Chlorocebus sabaeus.
Series [1] is described as follows: Cytotoxicity against African green monkey Vero cells by MTT assay. Type of series: toxicity, cell-based. The settings on record: chlorocebus sabaeus.
Series [2] has as its target Puromycin-sensitive aminopeptidase (Homo sapiens, UniProt P55786). Nature of the series: Inhibition of human N-terminal His-tagged Puromycin-sensitive aminopeptidase extracted from Escherichia coli BL21 STAR (DE3) using alanine-4-methoxy-2-naphthylamide as substrate incubated for 30 mins by SpectraMax microplate reader analysis.
The target in series [3] is T1, Aminopeptidase N (Homo sapiens, UniProt P15144). Briefly: Inhibition of Aminopeptidase N (unknown origin) using Ala-AMC as substrate incubated for 30 mins by SpectraMax microplate reader analysis.
T1 sequence (P15144 whole entry): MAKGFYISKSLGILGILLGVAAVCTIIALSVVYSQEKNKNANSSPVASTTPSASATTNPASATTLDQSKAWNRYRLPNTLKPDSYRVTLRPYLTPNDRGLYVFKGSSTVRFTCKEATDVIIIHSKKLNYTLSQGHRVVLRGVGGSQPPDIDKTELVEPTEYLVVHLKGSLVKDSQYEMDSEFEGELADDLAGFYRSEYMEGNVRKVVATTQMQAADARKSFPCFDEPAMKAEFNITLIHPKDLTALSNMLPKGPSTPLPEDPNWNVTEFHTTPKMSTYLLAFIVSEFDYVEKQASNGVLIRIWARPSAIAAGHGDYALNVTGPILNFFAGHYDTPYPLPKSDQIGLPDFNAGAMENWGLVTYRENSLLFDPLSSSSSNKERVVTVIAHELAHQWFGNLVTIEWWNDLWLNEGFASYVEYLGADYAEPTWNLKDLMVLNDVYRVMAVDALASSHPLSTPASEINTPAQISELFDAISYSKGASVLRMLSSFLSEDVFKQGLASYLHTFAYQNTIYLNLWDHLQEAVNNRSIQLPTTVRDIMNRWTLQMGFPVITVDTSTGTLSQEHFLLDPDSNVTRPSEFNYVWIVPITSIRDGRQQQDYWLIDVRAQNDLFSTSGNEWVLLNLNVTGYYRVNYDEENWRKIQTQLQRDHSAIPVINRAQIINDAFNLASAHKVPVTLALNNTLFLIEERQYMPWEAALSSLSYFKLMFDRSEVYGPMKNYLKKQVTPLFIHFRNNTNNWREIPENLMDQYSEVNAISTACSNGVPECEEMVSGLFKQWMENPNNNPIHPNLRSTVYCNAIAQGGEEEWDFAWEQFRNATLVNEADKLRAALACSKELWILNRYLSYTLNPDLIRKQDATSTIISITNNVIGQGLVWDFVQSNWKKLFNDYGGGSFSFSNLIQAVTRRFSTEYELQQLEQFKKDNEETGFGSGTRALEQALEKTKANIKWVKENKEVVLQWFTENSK
Series [4] deals with T1, Aminopeptidase N. Nature of the series: Inhibition of Aminopeptidase N (unknown origin) using Ala-AMC as substrate at 10 uM incubated for 30 mins by SpectraMax microplate reader analysis relative to control.
The test system of series [5] is Mus musculus. Briefly: Antinociceptive activity in CF-1 mouse assessed as analgesic effect at 50 to 100 ug,icv administration measured after 45 mins by tail-flick test. Type of series: functional, organism-based. The settings on record: dose 50-100 µg. (In general: Thermal pain tests record how soon the animal reacts.)
The subject of series [6] is Mus musculus. Briefly: Antinociceptive activity in CF-1 mouse assessed as increase in maximal possible effect at 50 to 100 ug,icv administration measured after 60 mins by tail-flick test. In kind it is functional, organism-based. Particulars: dose 50-100 µg.
Series [7] deals with Mus musculus. Nature of the series: Antinociceptive activity in CF-1 mouse assessed as analgesic effect at ip administration measured after 60 mins by tail-flick test. In kind it is functional, organism-based.
Series [8] concerns Mus musculus. Briefly: Antinociceptive activity in CF-1 mouse assessed as analgesic effect at 50 to 100 ug,icv administration measured after 60 mins by tail-flick test. Type of series: functional, organism-based. The settings on record: dose 50-100 µg.
For series [9], the system named is Mus musculus. Briefly: Antinociceptive activity in CF-1 mouse assessed as increase in maximal possible effect at 50 to 100 ug,icv administration measured after 15 mins by tail-flick test. In kind it is functional, organism-based. The settings on record: dose 50-100 µg.
In series [10] the test system is Mus musculus. Nature of the series: Antinociceptive activity in CF-1 mouse assessed as analgesic effect at 50 to 100 ug,icv administration measured after 15 mins by hot plate assay. In kind it is functional, organism-based. Particulars: dose 50-100 µg.
The subject of series [11] is Mus musculus. Nature of the series: Antinociceptive activity in CF-1 mouse assessed as analgesic effect at ip administration measured after 15 mins by hot plate assay. In kind it is functional, organism-based.
The test system of series [12] is Mus musculus. Nature of the series: Antinociceptive activity in CF-1 mouse assessed as increase in maximal possible effect at 50 to 100 ug,icv administration in presence of Met-enkephalin measured after 65 mins by tail-flick test. Type of series: functional, organism-based. Particulars: dose 50-100 µg.
The test system of series [13] is Mus musculus. Nature of the series: Antinociceptive activity in CF-1 mouse assessed as increase in maximal possible effect at 50 to 100 ug,icv administration in presence of Met-enkephalin measured after 15 mins by tail-flick test. Particulars: dose 50-100 µg. In kind it is functional, organism-based.
The subject of series [14] is Mus musculus. Nature of the series: Antinociceptive activity in CF-1 mouse assessed as increase in maximal possible effect at 50 to 100 ug,icv administration in presence of Met-enkephalin measured after 65 mins by hot plate assay. The settings on record: dose 50-100 µg. Type of series: functional, organism-based.
The test system of series [15] is Mus musculus. Nature of the series: Antinociceptive activity in CF-1 mouse assessed as increase in maximal possible effect at 50 to 100 ug,icv administration in presence of Met-enkephalin measured after 15 mins by hot plate assay. Type of series: functional, organism-based. Particulars: dose 50-100 µg.
For series [16], the system named is Mus musculus. Briefly: Antinociceptive activity in CF-1 mouse assessed as increase in maximal possible effect at 50 to 100 ug,icv administration in presence of naloxone measured after 65 mins by tail-flick test. Particulars: dose 50-100 µg. In kind it is functional, organism-based.
For series [17], the system named is Mus musculus. Briefly: Antinociceptive activity in CF-1 mouse assessed as increase in maximal possible effect at 50 to 100 ug,icv administration in presence of naloxone measured after 15 mins by tail-flick test. In kind it is functional, organism-based. The settings on record: dose 50-100 µg.
For series [18], the system named is Mus musculus. Nature of the series: Antinociceptive activity in CF-1 mouse assessed as increase in maximal possible effect at 50 to 100 ug,icv administration in presence of naloxone measured after 65 mins by hot plate assay. Type of series: functional, organism-based. Particulars: dose 50-100 µg.
Series [19] deals with Mus musculus. Briefly: Antinociceptive activity in CF-1 mouse assessed as increase in maximal possible effect at 50 to 100 ug,icv administration in presence of naloxone measured after 15 mins by hot plate assay. In kind it is functional, organism-based. Particulars: dose 50-100 µg.
For series [20], the system named is Mus musculus. Briefly: Antinociceptive activity in CF-1 mouse assessed as increase in Met-enkephalin level in brain at 50 to 100 ug,icv administration in presence of KCL measured after 65 mins by LC-MS/MS analysis. Type of series: functional, organism-based. The settings on record: dose 50-100 µg.
For series [21], the system named is Mus musculus. Briefly: Antinociceptive activity in CF-1 mouse assessed as increase in Leu-enkephalin level in brain at 50 to 100 ug,icv administration in presence of KCL measured after 65 mins by LC-MS/MS analysis. In kind it is functional, organism-based. Particulars: dose 50-100 µg.
The subject of series [22] is Mus musculus. Briefly: Antinociceptive activity in CF-1 mouse assessed as increase in MERF level in brain at 50 to 100 ug,icv administration in presence of KCL measured after 65 mins by LC-MS/MS analysis. Particulars: dose 50-100 µg. Type of series: functional, organism-based.
The nature of series [23]: Stability in mouse plasma assessed as compound remaining at 1 uM measured after 24 hr by LC-MS/MS analysis relative to control. In kind it is ADME, cell-free.

Chain of Puromycin-sensitive aminopeptidase (P55786 whole entry): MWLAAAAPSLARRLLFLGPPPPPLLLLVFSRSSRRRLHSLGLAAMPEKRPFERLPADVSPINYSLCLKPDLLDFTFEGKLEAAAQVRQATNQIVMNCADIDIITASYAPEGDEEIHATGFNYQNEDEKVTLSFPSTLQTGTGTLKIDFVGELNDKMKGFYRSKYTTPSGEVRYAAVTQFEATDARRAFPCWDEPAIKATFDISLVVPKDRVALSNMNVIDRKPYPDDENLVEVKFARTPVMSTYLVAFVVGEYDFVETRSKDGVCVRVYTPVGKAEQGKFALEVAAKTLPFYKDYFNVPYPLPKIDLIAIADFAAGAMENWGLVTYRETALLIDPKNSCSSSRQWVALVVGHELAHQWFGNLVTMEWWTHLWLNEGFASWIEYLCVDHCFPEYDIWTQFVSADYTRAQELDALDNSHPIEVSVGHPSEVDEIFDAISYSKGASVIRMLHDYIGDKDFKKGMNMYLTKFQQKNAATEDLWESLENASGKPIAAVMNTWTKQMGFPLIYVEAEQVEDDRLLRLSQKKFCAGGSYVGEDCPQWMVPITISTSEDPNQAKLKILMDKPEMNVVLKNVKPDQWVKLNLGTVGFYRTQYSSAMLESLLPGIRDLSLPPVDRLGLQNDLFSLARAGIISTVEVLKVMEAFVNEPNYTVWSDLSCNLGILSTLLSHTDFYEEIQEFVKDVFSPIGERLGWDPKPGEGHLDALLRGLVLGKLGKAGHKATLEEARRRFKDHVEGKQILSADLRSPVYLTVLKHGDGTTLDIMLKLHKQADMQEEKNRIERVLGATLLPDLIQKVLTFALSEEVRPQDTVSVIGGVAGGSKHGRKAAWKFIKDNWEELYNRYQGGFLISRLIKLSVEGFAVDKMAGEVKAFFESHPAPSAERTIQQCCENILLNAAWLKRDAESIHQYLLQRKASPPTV

As usually defined, the inhibition is the change of the read-out against control, counted positive when it falls. By CC50 is commonly meant the concentration giving 50% cytotoxicity. For the molecule `CN(C)c1ncnc2c1ncn2[C@@H]1O[C@H](CO)[C@@H](NC(=O)[C@H](N)CSC(c2ccccc2)c2ccccc2)[C@H]1O`, in the series on Vero, testing at 25 µM gave an inhibition of 0%. For the same molecule, half-maximal cytotoxicity in series [1] (CC50) was put at 46 µM.
Broadly, the IC50 is the point on the concentration scale where inhibition reaches its midpoint. Consider `O=C(O)CNC(=O)C(CS)Cc1ccccc1` (centres undefined) [THIORPHAN], for which the results for the half-maximal inhibitory concentration (IC50) (in series [2]; against Aminopeptidase N [3]) were 57.3 µM and greater than 100 µM, respectively. Moreover, the inhibition against Aminopeptidase N [4] was determined as 0%. For the same molecule, the inhibition at 25 µM in the series on Vero was 70.3%. In addition, the CC50 in [1] was greater than 100 µM.
On to `CN(C)c1ncnc2c1ncn2[C@@H]1O[C@H](CCl)[C@@H](NC(=O)[C@H](CSC23CC4CC(CC(C4)C2)C3)NC(=O)OC(C)(C)C)[C@H]1O`, for which the inhibition on Aminopeptidase N [4] worked out at 0%. The inhibition at 25 µM in the series with Vero was determined as 22.1%.
As for `COc1ccc(C[C@H](N)C(=O)N[C@H]2[C@@H](O)[C@H](n3cnc4c(N(C)C)ncnc43)O[C@@H]2CO)cc1` [PUROMYCIN], the inhibition at 25 µM in the series with Vero is 99%. The molecule also showed a cytotoxic concentration (CC50) in series [1] of 2.76 µM.
Take `CN(C)c1ncnc2c1ncn2[C@@H]1O[C@H](CO)[C@@H](NC(=O)[C@@H](N)CSC23CC4CC(CC(C4)C2)C3)[C@H]1O`: the inhibition at Aminopeptidase N [4] is 99.1%. Also, the inhibition at 25 µM in the series on Vero was found to be 24%. The molecule further displayed a 50% cytotoxic concentration (CC50) in series [1] of 17.6 µM.
As for `CN(C)c1ncnc2c1ncn2[C@@H]1O[C@H](CCl)[C@@H](NC(=O)[C@@H](N)CSC(c2ccccc2)c2ccccc2)[C@H]1O`, the IC50 in series [2] came out at 0.007 µM; against Aminopeptidase N [3] it was 2.6 µM. Besides, the inhibition at Aminopeptidase N [4] was 55.8%. In the series on Vero, at 25 µM the inhibition was 0%. The cytotoxic concentration (CC50) in [1] is greater than 100 µM. The result in the series on Mus musculus [5], in the series with Mus musculus [6], in the series with Mus musculus [8], in the series on Mus musculus [9], with Mus musculus [10] and with Mus musculus [12] was Active. For the same molecule, the result in the series on Mus musculus [13], in the series with Mus musculus [14], with Mus musculus [15], in the series with Mus musculus [21] and with Mus musculus [22] was Active. Also, the outcome in the series on Mus musculus [7], with Mus musculus [11], with Mus musculus [16], with Mus musculus [17], in the series on Mus musculus [18] and in the series on Mus musculus [19] was inactive. For the same molecule, the outcome in the series with Mus musculus [20] was inactive. Also, the Stability in [23] is recorded as 116.7%.
For the molecule `CN(C)c1ncnc2c1ncn2[C@@H]1O[C@H](CCl)[C@@H](NC(=O)[C@@H](N)CSC23CC4CC(CC(C4)C2)C3)[C@H]1O`, the results for the IC50 (in series [2]; on Aminopeptidase N [3]) were 0.005 µM and 0.084 µM, respectively. At Aminopeptidase N [4], this molecule gave an inhibition of 99.1%. In addition, the inhibition at 25 µM in the series with Vero is 10.4%.
Molecule `CC(C)C[C@@H](C(=O)N[C@H](C(=O)OC1CCCC1)c1ccccc1)[C@H](O)C(=O)NO` [TOSEDOSTAT] had an inhibition at 25 µM in the series with Vero of 34.5%. For the same molecule, in series [1], the half-maximal cytotoxic concentration (CC50) was 12.7 µM.
With `CN(C)c1ncnc2c1ncn2[C@@H]1O[C@H](CCl)[C@@H](NC(=O)[C@@H](CSC(c2ccccc2)c2ccccc2)NC(=O)OC(C)(C)C)[C@H]1O`, on Aminopeptidase N [4], the inhibition was determined as 0%. The inhibition at 25 µM in the series with Vero came to 0%. In series [1], this molecule registered a CC50 of 67.4 µM.
As for `CN(C)c1ncnc2c1ncn2[C@@H]1O[C@H](CCl)[C@@H](NC(=O)[C@H](CSC(c2ccccc2)c2ccccc2)NC(=O)OC(C)(C)C)[C@H]1O`, the inhibition on Aminopeptidase N [4] stood at 4.6%. In the series with Vero, this molecule displayed an inhibition at 25 µM of 3%. This molecule also showed a 50% cytotoxic concentration (CC50) in [1] greater than 100 µM.
On to `CN(C)c1ncnc2c1ncn2[C@@H]1O[C@H](CO)[C@@H](NC(=O)[C@@H](N)CSC(c2ccccc2)c2ccccc2)[C@H]1O`, for which, in series [2], the IC50 came out at 0.007 µM. The same molecule yielded an inhibition at 25 µM in the series on Vero of 0%. The molecule also came in with a CC50 in series [1] greater than 100 µM.
`COc1ccc(C[C@H](N)C(=O)N[C@H]2[C@@H](O)[C@H](n3cnc4c(N(C)C)ncnc43)O[C@@H]2CCl)cc1` came in with a 50% inhibitory concentration (IC50) at Aminopeptidase N [3] greater than 100 µM. The same molecule returned an inhibition at 25 µM in the series with Vero of 26.1%.
`CC(C)C[C@H](NC(=O)[C@@H](O)[C@H](N)Cc1ccccc1)C(=O)O` [UBENIMEX] registered an inhibition at 25 µM in the series with Vero of 28%. This molecule also showed a CC50 in [1] of 25 µM.
Take `CN(C)c1ncnc2c1ncn2[C@@H]1O[C@H](CCl)[C@@H](NC(=O)[C@H](N)CSC(c2ccccc2)c2ccccc2)[C@H]1O`: the inhibition at Aminopeptidase N [4] was determined as 38.9%. In the series with Vero, this molecule showed an inhibition at 25 µM of 0%.
